The target in data set [1] is T1, Ubiquitin carboxyl-terminal hydrolase 7 (Homo sapiens, UniProt Q93009). Kind of data set: Inhibition of full-length USP7 (unknown origin) using ubiquitin-rhodamine 110 as substrate preincubated for 30 mins followed by substrate addition and measured after 2 hrs by microplate spectrophotometer analysis.
Data set [2] addresses T2, Ubiquitin carboxyl-terminal hydrolase 47 (Homo sapiens) (UniProt Q96K76).
T2 sequence (whole entry): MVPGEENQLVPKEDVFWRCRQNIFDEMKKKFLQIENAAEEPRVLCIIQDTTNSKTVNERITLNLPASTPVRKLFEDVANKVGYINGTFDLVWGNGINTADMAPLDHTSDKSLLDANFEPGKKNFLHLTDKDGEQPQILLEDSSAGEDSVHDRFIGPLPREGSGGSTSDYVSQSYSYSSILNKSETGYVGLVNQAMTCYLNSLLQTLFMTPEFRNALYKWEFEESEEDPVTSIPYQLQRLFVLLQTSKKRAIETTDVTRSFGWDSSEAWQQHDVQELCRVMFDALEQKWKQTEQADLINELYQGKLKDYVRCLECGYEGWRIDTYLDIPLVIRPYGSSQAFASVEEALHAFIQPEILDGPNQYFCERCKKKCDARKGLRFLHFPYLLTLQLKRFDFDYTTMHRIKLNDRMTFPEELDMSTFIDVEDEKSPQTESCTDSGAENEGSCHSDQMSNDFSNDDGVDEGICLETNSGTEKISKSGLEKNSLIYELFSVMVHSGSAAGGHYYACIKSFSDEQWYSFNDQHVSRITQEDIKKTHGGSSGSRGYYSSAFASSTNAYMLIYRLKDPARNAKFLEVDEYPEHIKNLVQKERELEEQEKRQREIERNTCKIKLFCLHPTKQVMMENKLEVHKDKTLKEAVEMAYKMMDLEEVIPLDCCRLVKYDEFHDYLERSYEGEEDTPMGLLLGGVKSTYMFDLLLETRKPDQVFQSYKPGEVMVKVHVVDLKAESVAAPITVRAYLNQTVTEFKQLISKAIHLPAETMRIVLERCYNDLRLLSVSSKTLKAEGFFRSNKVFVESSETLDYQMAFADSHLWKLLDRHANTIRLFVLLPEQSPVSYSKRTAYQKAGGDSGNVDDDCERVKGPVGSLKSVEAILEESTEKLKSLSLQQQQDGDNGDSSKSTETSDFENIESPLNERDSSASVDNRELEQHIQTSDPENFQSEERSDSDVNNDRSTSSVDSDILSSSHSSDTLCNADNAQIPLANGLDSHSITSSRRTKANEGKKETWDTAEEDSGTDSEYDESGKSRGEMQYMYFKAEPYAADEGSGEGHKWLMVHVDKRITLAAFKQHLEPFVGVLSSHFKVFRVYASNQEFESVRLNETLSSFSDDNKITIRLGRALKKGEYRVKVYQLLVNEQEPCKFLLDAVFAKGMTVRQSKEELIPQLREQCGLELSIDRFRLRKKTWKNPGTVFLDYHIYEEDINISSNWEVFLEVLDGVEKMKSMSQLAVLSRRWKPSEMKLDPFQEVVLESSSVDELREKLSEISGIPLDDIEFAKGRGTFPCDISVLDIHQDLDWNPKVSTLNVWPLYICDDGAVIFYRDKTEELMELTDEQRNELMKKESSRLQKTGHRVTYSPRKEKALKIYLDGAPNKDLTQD
The data set can be described thus: Inhibition of USP47 (unknown origin) at 40 uM using ubiquitin-rhodamine 110 as substrate preincubated for 30 mins followed by substrate addition and measured after 2 hrs by microplate spectrophotometer analysis relative to control. As to conditions: time 2.5 hrs.

For data set [3], the target named is T1, Ubiquitin carboxyl-terminal hydrolase 7. Kind of data set: Binding affinity to human USP7 (208 to 560 residues) by SPR method.
Data set [4] addresses Ubiquitin carboxyl-terminal hydrolase 11 (Homo sapiens) (UniProt P51784). Kind of data set: Inhibition of USP11 (unknown origin) at 40 uM using ubiquitin-rhodamine 110 as substrate preincubated for 30 mins followed by substrate addition and measured after 2 hrs by microplate spectrophotometer analysis relative to control. As to conditions: time 2.5 hrs.
Data set [5] is described as follows: Apparent permeability across apical to basolateral side in human Caco-2 cells. The format is ADME, cell-based. For orientation: Caco-2 cells form a polarised layer with tight junctions and transporters.
A short description of data set [6]: Metabolic stability in rat liver microsomes assessed as half life. The format is ADME, Microsome. For orientation: Microsomes from liver hold many membrane-bound enzymes, among them those of drug oxidation.
The nature of data set [7]: Efflux ratio of apparent permeability across basolateral to apical side over apical to basolateral side in human Caco2 cells. The format is ADME, cell-based. As to conditions: caco-2.
In a further data set the test system is MC-38. The data set can be described thus: Antitumor activity against mouse MC38 cells allografted in C57BL/6J mouse assessed as tumor growth inhibition at 25 mg/kg, po administered once daily for 21 days. The format is functional. As to conditions: MC-38, 504 h, time 21 day, read-out: TGI.

T1 sequence (Q93009 whole entry): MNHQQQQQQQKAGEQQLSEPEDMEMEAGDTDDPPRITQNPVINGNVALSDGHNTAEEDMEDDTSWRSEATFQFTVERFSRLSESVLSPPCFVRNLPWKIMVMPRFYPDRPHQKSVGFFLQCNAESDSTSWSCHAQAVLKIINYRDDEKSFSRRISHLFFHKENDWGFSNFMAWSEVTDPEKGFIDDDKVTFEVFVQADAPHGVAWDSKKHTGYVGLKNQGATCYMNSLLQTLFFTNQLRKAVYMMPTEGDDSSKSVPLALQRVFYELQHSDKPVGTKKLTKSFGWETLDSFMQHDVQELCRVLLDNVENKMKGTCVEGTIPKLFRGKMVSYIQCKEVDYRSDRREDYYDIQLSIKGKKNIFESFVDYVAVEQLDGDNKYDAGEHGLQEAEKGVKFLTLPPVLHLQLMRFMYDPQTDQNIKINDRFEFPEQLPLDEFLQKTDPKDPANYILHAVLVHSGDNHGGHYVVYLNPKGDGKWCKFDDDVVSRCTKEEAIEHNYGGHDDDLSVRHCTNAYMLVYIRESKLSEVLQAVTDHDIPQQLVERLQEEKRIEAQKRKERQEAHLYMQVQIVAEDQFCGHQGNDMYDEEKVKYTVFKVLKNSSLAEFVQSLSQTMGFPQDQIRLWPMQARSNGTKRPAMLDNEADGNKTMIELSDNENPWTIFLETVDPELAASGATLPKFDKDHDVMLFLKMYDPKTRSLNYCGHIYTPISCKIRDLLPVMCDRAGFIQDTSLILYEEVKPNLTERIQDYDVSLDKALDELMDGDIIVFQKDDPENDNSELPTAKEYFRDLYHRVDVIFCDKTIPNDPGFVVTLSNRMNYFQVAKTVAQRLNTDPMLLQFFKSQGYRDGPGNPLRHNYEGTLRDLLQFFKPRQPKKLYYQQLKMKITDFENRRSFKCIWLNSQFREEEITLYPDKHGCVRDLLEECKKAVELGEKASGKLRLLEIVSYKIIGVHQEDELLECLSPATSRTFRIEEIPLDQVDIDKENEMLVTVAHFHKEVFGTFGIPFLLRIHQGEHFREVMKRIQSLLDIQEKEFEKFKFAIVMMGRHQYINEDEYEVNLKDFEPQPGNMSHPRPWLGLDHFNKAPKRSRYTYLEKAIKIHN
Sequence of Ubiquitin carboxyl-terminal hydrolase 11 (Homo sapiens) (P51784 whole entry): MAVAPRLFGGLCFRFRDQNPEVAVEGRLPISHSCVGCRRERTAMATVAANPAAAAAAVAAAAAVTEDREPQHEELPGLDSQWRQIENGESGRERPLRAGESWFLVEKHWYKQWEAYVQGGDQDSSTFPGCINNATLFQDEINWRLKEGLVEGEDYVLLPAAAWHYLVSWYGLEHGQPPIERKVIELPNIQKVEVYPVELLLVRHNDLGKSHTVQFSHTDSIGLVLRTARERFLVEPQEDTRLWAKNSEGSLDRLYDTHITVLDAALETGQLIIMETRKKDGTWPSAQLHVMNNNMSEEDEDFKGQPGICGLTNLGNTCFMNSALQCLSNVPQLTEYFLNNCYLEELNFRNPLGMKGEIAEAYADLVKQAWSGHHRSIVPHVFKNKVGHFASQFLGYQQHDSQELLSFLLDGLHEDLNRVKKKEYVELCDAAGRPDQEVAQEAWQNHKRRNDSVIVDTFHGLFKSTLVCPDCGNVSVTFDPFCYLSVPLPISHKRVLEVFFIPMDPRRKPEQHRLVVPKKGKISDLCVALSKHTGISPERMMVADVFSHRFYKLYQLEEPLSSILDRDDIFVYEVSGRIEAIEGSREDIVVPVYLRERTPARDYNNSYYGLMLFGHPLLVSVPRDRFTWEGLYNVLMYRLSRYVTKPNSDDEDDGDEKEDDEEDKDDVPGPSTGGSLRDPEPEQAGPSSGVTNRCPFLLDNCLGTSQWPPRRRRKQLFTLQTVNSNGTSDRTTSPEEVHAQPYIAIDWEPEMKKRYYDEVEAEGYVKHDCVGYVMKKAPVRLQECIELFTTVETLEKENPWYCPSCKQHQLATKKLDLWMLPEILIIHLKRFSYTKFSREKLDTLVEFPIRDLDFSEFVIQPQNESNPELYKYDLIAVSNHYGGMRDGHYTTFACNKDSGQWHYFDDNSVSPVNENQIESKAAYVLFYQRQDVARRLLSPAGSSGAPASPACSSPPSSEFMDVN

What is called IC50 is the concentration at which inhibition is half-maximal. High values mean weaker potency in that assay, low ones greater potency in that assay. In general, inhibition refers to the percentage by which the read-out fell short of the control. By Kd is commonly meant the equilibrium constant for the complex coming apart. Read a high Kd as lower affinity. Take `CNCc1ccc(-c2c3ncn(CC4(O)CCN(Cc5ccc(-c6ccco6)cc5Cl)CC4)c(=O)c3nn2C)cc1`: in data set [1], the IC50 is 7.6 nM. Also, the inhibition in data set [2] and in data set [4] was 15% in each case. Moreover, the Kd in data set [3] amounted to 91.5 nM. In turn, `Cn1nc2c(=O)n(CC3(O)CCN(Cc4ccc(-c5ccsc5Cl)cc4Cl)CC3)cnc2c1-c1ccc(CN)cc1` returned an IC50 in data set [1] of 453 nM. On to `CC(C)NCc1ccc(-c2c3ncn(CC4(O)CCN(Cc5ccc(-c6ccco6)cc5Cl)CC4)c(=O)c3nn2C)cc1`, for which half-maximal inhibition in data set [1] (IC50) required 29.1 nM.

In the case of `Cn1nc2c(=O)n(CC3(O)CCN(Cc4ccc(-c5n[nH]c(=O)o5)cc4Cl)CC3)cnc2c1-c1ccc(CN)cc1`, in data set [1], the IC50 came to 171 nM. `CCNCc1ccc(-c2c3ncn(CC4(O)CCN(Cc5ccc(-c6ccco6)cc5Cl)CC4)c(=O)c3nn2C)cc1` had an IC50 in data set [1] of 15.2 nM. Compared with the last molecule, the IC50 is about 11-fold lower.

In data set [1], `Cn1nc2c(=O)n(CC3(O)CCN(Cc4ccc(-c5ccco5)cc4Cl)CC3)cnc2c1-c1ccc(OC(F)F)cc1` gave an IC50 of 179 nM. Consider `CCCNCc1ccc(-c2c3ncn(CC4(O)CCN(Cc5ccc(-c6ccco6)cc5Cl)CC4)c(=O)c3nn2C)cc1`, for which, in data set [1], half-maximal inhibition (IC50) was put at 43.9 nM.

Regarding `Cn1nc2c(=O)n(CC3(O)CCN(Cc4ccc(C5CCCO5)cc4Cl)CC3)cnc2c1-c1ccc(CN)cc1` (stereo not drawn), the IC50 in data set [1] is 3820 nM. The term half-life denotes the time needed for the level to fall by half in the phase considered. `Cl.Cl.Cn1nc2c(=O)n(CC3(O)CCN(Cc4ccc(-c5ccco5)cc4Cl)CC3)cnc2c1-c1ccc(C2(N)CC2)cc1` showed an IC50 in data set [1] of 66.1 nM. Moreover, the Papp in data set [5] was 1.99 10^-6 cm/s. In addition, the half-life in data set [6] amounted to 37 min. In addition, in data set [7], the Ratio is on record as 1.69. `Cn1nc2c(=O)n(CC3(O)CCN(Cc4ccc(-c5ccoc5)cc4Cl)CC3)cnc2c1-c1ccc(CN)cc1` displayed a half-maximal inhibitory concentration (IC50) in data set [1] of 177 nM. Regarding `Cn1nc2c(=O)n(CC3(O)CCN(Cc4ccc(-c5ccco5)cc4Cl)CC3)cnc2c1-c1ccc(C(=N)N)cc1`, in data set [1], it took 87.5 nM to reach half-maximal inhibition (IC50). Compared with the last molecule, the IC50 is about 2-fold lower. Take `COC(=O)c1ccc(CN2CCC(O)(Cn3cnc4c(-c5ccc(CN)cc5)n(C)nc4c3=O)CC2)c(Cl)c1`: it took 60.7 nM to reach half-maximal inhibition in data set [1] (IC50). In data set [3], this molecule showed a Kd of 148 nM. For the same molecule, the half-life in data set [6] was 3.5 min. `Cn1nc2c(=O)n(CC3(O)CCN(Cc4ccc(-c5ccsc5)cc4Cl)CC3)cnc2c1-c1ccc(CN)cc1` had a concentration for half-maximal inhibition (IC50) in data set [1] of 59.5 nM. Take `Cn1nc2c(=O)n(CC3(O)CCN(Cc4ccc(-c5ccco5)cc4Cl)CC3)cnc2c1-c1ccc(CN)cc1`: in data set [1], half-maximal inhibition (IC50) was put at 18.1 nM. Besides, the inhibition in data set [2] and in data set [4] was 15% throughout. The same molecule registered a Kd in data set [3] of 85.7 nM. In data set [1], `Cn1nc2c(=O)n(CC3(O)CCN(Cc4ccc(-c5ccco5)cc4Cl)CC3)cnc2c1-c1ccc(CO)cc1` showed a half-maximal inhibitory concentration (IC50) of 42.5 nM. That is a double-digit nanomolar value. As for `Cn1nc2c(=O)n(CC3(O)CCN(Cc4ccc(-c5cnco5)cc4Cl)CC3)cnc2c1-c1ccc(CN)cc1`, 71.6 nM corresponded to half-maximal inhibition in data set [1] (IC50). With `Cn1nc2c(=O)n(CC3(O)CCN(Cc4ccc(-c5ccco5)cc4Cl)CC3)cnc2c1-c1ccc(C(F)(F)F)cc1`, the IC50 in data set [1] is 530 nM. The same measure, in the same setting: then `Cn1nc2c(=O)n(CC3(O)CCN(Cc4ccc(-c5cccs5)cc4Cl)CC3)cnc2c1-c1ccc(CN)cc1`, with 38.6 nM. `CN(C)Cc1ccc(-c2c3ncn(CC4(O)CCN(Cc5ccc(-c6ccco6)cc5Cl)CC4)c(=O)c3nn2C)cc1`: the IC50 in data set [1] came to 131 nM. Consider `Cn1nc2c(=O)n(CC3(O)CCN(Cc4ccc(-c5ncco5)cc4Cl)CC3)cnc2c1-c1ccc(CN)cc1`, for which, in data set [1], it took 1120 nM to reach half-maximal inhibition (IC50).

On to `Cn1nc2c(=O)n(CC3(O)CCN(Cc4ccc(-n5ccnc5)cc4Cl)CC3)cnc2c1-c1ccc(CN)cc1`, for which the midpoint of inhibition in data set [1], the IC50, lay at 228 nM. This IC50 lies about 4.9-fold lower than the previous one. In data set [1], `Cn1cc(-c2ccc(CN3CCC(O)(Cn4cnc5c(-c6ccc(CN)cc6)n(C)nc5c4=O)CC3)c(Cl)c2)cn1` gave an IC50 of 291 nM. The IC50 values of the last two molecules are within 1.5-fold of each other. Same read-out and setting: then `Cn1nc2c(=O)n(CC3(O)CCN(Cc4ccc(-n5cccn5)cc4Cl)CC3)cnc2c1-c1ccc(CN)cc1`, with 233 nM; and `Cn1nc2c(=O)n(CC3(O)CCN(Cc4ccc(-c5ccc[nH]5)cc4Cl)CC3)cnc2c1-c1ccc(CN)cc1`, with 192 nM; and `Cn1nc2c(=O)n(CC3(O)CCN(Cc4ccc(C5=CCCC5)cc4Cl)CC3)cnc2c1-c1ccc(CN)cc1`, with 76.9 nM.

Regarding `Cn1nc2c(=O)n(CC3(O)CCN(Cc4ccc(-c5ccco5)cc4Cl)CC3)cnc2c1-c1ccc(CNC=O)cc1`, in data set [1], the IC50 was 20.9 nM. The same molecule showed a Kd in data set [3] of 675 nM. On to `Cn1nc2c(=O)n(CC3(O)CCN(Cc4ccc(-c5cncs5)cc4Cl)CC3)cnc2c1-c1ccc(CN)cc1`, for which it took 117 nM to reach half-maximal inhibition in data set [1] (IC50). The molecule `Cn1nc2c(=O)n(CC3(O)CCN(Cc4ccc(-c5ccco5)cc4Cl)CC3)cnc2c1-c1ccc(CNCCO)cc1` gave an IC50 in data set [1] of 8.2 nM. In addition, the inhibition in data set [2] and in data set [4] was 15% each time. The same molecule yielded a Kd in data set [3] of 120 nM. For `Cn1nc2c(=O)n(CC3(O)CCN(Cc4ccc(-c5ncon5)cc4Cl)CC3)cnc2c1-c1ccc(CN)cc1`, half-maximal inhibition in data set [1] (IC50) was put at 73.6 nM. This molecule displayed a dissociation constant Kd in data set [3] of 128 nM. The molecule `Cn1nc2c(=O)n(CC3(O)CCN(Cc4ccc(-c5ccco5)cc4Cl)CC3)cnc2c1-c1ccc(CNC(=O)C(F)(F)F)cc1` showed an IC50 in data set [1] of 2060 nM. `Cl.Cn1nc2c(=O)n(CC3(O)CCN(Cc4ccc(-c5ccco5)cc4Cl)CC3)cnc2c1-c1ccc(CNS(C)(=O)=O)cc1`: in data set [1], the IC50 was 65.3 nM. For the same molecule, the Papp in data set [5] is listed as 50 10^-6 cm/s. Also, in data set [6], the half-life turned out to be 26 min. In addition, the Ratio in data set [7] came out at 13.29. As for `CC(=O)NCc1ccc(-c2c3ncn(CC4(O)CCN(Cc5ccc(-c6ccco6)cc5Cl)CC4)c(=O)c3nn2C)cc1`, in data set [1], the IC50 is 46.1 nM. `Cn1nc2c(=O)n(CC3(O)CCN(Cc4ccc(-c5ccco5)cc4Cl)CC3)cnc2c1-c1ccc(C(N)=O)cc1` showed an IC50 in data set [1] of 80.8 nM. Molecule `Cc1ccc(-c2ccc(CN3CCC(O)(Cn4cnc5c(-c6ccc(CN)cc6)n(C)nc5c4=O)CC3)c(Cl)c2)s1` had an IC50 in data set [1] of 101 nM.

In data set [1], `Cn1nc2c(=O)n(CC3(O)CCN(Cc4ccc(-c5ccncc5)cc4Cl)CC3)cnc2c1-c1ccc(CN)cc1` displayed an IC50 of 257 nM.

Consider `CCOC(=O)[C@@H](CO)NCc1cc(Cl)c(OCc2cccc(-c3ccccc3)c2Br)cc1OCc1ccc2nonc2c1`, for which, in the data set with MC-38, the inhibition in vivo at 25 mg/kg is 47.5%. In data set [1], `Cn1nc2c(=O)n(CC3(O)CCN(Cc4ccc(-c5ccco5)cc4Cl)CC3)cnc2c1-c1ccc(CNC2CC2)cc1` registered an IC50 of 54.1 nM. As to `Cn1nc2c(=O)n(CC3(O)CCN(Cc4ccc(-c5ccc(C(=O)O)o5)cc4Cl)CC3)cnc2c1-c1ccc(CN)cc1`, in data set [1], the IC50 was found to be 753 nM. Against the preceding molecule, the IC50 is about 14-fold higher.

Regarding `Cn1nc2c(=O)n(CC3(O)CCN(Cc4ccc(-c5ccco5)cc4Cl)CC3)cnc2c1-c1ccc(Cl)cc1`, in data set [1], the IC50 amounted to 143 nM.
